Results taken from patent US20170137481A1, “Use of Cell-Permeable Peptide Inhibitors of the JNK Signal Transduction Pathway for the Treatment of Various Diseases” (Xigen Inflammation Ltd., priority 2014, published 2017).
Marks after values point to notes of the source that are not given here. Non-standard residues stand in square brackets, D forms with d. No end group written: not given here.

Experiments:
[1] = tested on: patients who underwent complex ocular surgery; assay: Phase II post-surgery intraocular inflammation, safety
Source text: The criteria for evaluation of safety were:
An AE is therefore any unfavorable and unintended sign, symptom or disease temporally associated with the use of a medicinal product, whether or not considered related to the medicinal product.
The present study was a double-blind study. All patients who were randomized and for whom the sub-conjunctival injection was started are included in the safety analysis by dose group. […] If the study treatment eye drops were stopped prematurely (i.e. before day 21), the patients concerned continued follow-up until day 28, in accordance with the study protocol.
Investigators assessed (in a blinded manner) the relationship of each reported AE to any of the study treatments. An event was considered to be related to study treatment if the Investigator ticked either ‘possible’ or ‘probable’ as the reply to this question.

[2] = tested on: post-surgery intraocular inflammation; assay: Phase II post-surgery intraocular inflammation, efficacy; assay type: in vivo, human; conditions: for Cleared ocular inflammation (cell grade 0 and flare grade 0): Yes: Dexamethasone
Method: The objectives of the present study were to evaluate the efficacy and safety of a single sub-conjunctival injection of XG-102 90 or 900 μg administered within maximally 3 hours after the end of the surgical procedure compared to dexamethasone eye drops administered 4 times/day for 21 days in post-operative intraocular inflammation.
In accordance with this trial's primary objective, the primary outcome was evaluated by the mean anterior chamber cells grade at day 28 post-administration of the sub-conjunctival injection of study treatment comparing XG-102 900 μg with dexamethasone eye drops.
The present trial was a randomized (1:1:1), controlled, double-blind, multicenter non-inferiority clinical trial with three parallel groups of equal size. Randomization, which was blocked by center, was performed using a web-based, secure, randomization system. Eligible patients were male or female (post-menopausal, or sterile by tubal ligation or hysterectomy), who were >18 years of age and who had undergone one of the following ocular surgeries: (a) anterior and posterior segment combined surgery which may include surgery for: cataract and retinal detachment, cataract and epimacular membrane and/or cataract and macular hole or (b) glaucoma surgery or (c) complex posterior segment surgery or (d) complicated intraocular surgery which may include cataract surgery associated with diabetic retinopathy and/or complicated retinal detachment ocular surgery. Patients were not eligible to participate if any of the following exclusion criteria was present at the moment of randomization:
The study protocol planned that 138 patients would be randomized and administered the sub-conjunctival injection of study treatment. […] Patients were randomly allocated to either XG-102 90 or 900 μg which was administered as a single, sub-conjunctival injection of 250 μl within maximally 3 hours after the end of the eye surgery or to dexamethasone eye drops, which were instilled 4 times per day for 21 days. The first study treatment eye drop was instilled within maximally 15 minutes after the sub-conjunctival injection of study treatment. In order to maintain the blinding, patients randomized to the XG-102 group received eye drops containing a NaCl 0.9% solution and patients randomized to the dexamethasone group were administered a sub-conjunctival injection containing NaCl 0.9%. Patients were followed for, in total, 28 (±5) days after administration of the sub-conjunctival injection of study treatment.
Patients were randomized to one of the three study groups: • 1. A single sub-conjunctival injection of XG-102 90 μg+placebo eye drops 4 times/day for 21 days or • 2. A single sub-conjunctival injection of XG-102 900 μg+placebo eye drops 4 times/day for 21 days or • 3. A single sub-conjunctival injection of NaCl 0.9%+dexamethasone eye drops 4 times/day for 21 days.
The primary objective was evaluated by the mean anterior chamber cells grade at day 28 post-administration of the sub-conjunctival administration of study treatment. The criteria for evaluation of the primary objective was
The ophthalmology examinations were performed at baseline (i.e. either on the day of surgery, but before the surgery was performed). […] In order to reduce operator variability, the sites were instructed that, where possible, the same operator should perform all ophthalmology examinations for the same patient throughout the trial. The ophthalmology measurements were performed in accordance with the study-specific instructions. The latter were reviewed and discussed with the site teams during the initiation visit and during each monitoring visit. For the determination of the cell/flare count and cell/flare grade, the SUN Working Group's consensus was used by the sites using the SUN Working group definitions (“Standardization of Uveitis Nomenclature for Reporting Clinical Data. Results of the First International Workshop.,” American Journal of Ophthalmology, vol 140, no. 3, pp. 509-516, 2005). […]

[3] = tested on: acute CYP-induced cystitis in female Sprague-Dawley rats; assay: CYP-induced acute cystitis, intravenous treatment, visceral pain; assay type: in vivo, rat; conditions: XG-102 2 mg/kg i.v., ibuprofen 10 mg/kg i.v.; 24 h post-CYP
Method: (§1) This preclinical model is well-used to test therapeutic approaches for the treatment of interstitial cystitis/painful bladder syndrome (IC/PBS).
(§2) Animals were acclimatized to the laboratory conditions for at least 3 days before the start of any experiments. The animals were allocated to the following four experimental groups (n=10 animals per group):
Control rats received physiological saline under the same experimental conditions as CYP (final volume of 5 mL/kg, i.p.).
(§3) On the day of each experiment, weight of rats was recorded.
Standardized conditions including fixed time-of-day (a.m. to minimize the potential circadian variations in the behaviours responses) and single-experimenter testing of all animals were applied to minimize variability behavior-based pain testing. Visceral pain including allodynia and hyperalgesia was evaluated by applying to the lower abdomen, close to the urinary bladder, a set of 8 calibrated von Frey filaments of increasing forces (1, 2, 4, 6, 8, 10, 26 and 60 g) with an interstimulus interval of 5 seconds. Prior testing, the abdominal area designed for mechanical stimulation of each animal was shaved. Animals were then placed on a raised wire mesh floor under individual transparent Plexiglas box and acclimatized for at least 30 minutes before starting the von Frey test. […]

[4] = tested on: acute CYP-induced cystitis in female Sprague-Dawley rats; assay: CYP-induced acute cystitis, intravesical treatment; assay type: in vivo, rat; conditions: 50 mg/mL i.ves.; 24 h post-CYP
Method: as §1, §2
To induce acute cystitis, a single i.p. injection of CYP at a dose of 150 mg/kg in a final volume of 5 mL/kg was performed. Control rats received physiological saline under the same experimental conditions as CYP (final volume of 5 mL/kg, i.p.).
as §3
Standardized conditions including fixed time-of-day (a.m. to minimize the potential circadian variations in the behaviours responses) and single-experimenter testing of all animals were applied to minimize variability behavior-based pain testing. Visceral pain including allodynia and hyperalgesia was evaluated by applying to the lower abdomen, close to the urinary bladder, a set of 8 calibrated von Frey filaments of increasing forces (1, 2, 4, 6, 8, 10, 26 and 60 g) with an interstimulus interval of 5 seconds. Prior testing, the abdominal area designed for mechanical stimulation of each animal was shaved. Animals were then placed on a raised wire mesh floor under individual transparent Plexiglas box and acclimatized for at least 30 minutes before starting the von Frey test. Filaments were then applied 1-2 seconds through the mesh floor with enough strength to cause the filament to slightly bend. Each filament was tested 3 times. Care was taken to stimulate different areas within the lower abdominal region in the vicinity of the urinary bladder to avoid desensitization.
Urinary bladders were rapidly collected and cleaned from lipoid tissue. […] Finally, wall thickness was measured using a digital caliper by placing the bladder wall between the two outside jaws.

[5] = biological target: JNK of primary mouse cortical neuron cultures; assay: cell-based or functional assay
[6] = tested on: TC-3 cell cultures; assay: Cellular import of fluorescein labeled TAT and TAT-IB1(s) peptides; assay type: cell-based; conditions: 1 μM
Method: The ability of the L- and D-enantiomeric forms of TAT and TAT-IB1(s) peptides (“TAT-IB peptides”) to enter cells was evaluated. L-TAT, D-TAT, L-TAT-IB1(s), and D-TAT-IB1(s) peptides [SEQ ID NOs: 5, 6, 9 and 12, respectively] were labeled by N-terminal addition of a glycine residue conjugated to fluorescein. Labeled peptides (1 μM) were added to TC-3 cell cultures, which were maintained as described in Example 3. At predetermined times cells were washed with PBS and fixed for five minutes in ice-cold methanol-acetone (1:1) before being examined under a fluorescence microscope. Fluorescein-labeled BSA (1 μM, 12 moles/mole BSA) was used as a control.

[7] = tested on: JNK; conditions: JBDs; cited from earlier work
[8] = tested on: TC-3 cells; assay: IL-1 induced pancreatic beta-cell death with peptides; assay type: cell-based; conditions: 1 μM single addition, two days IL-1
Method: Inhibition of IL-1 induced pancreatic beta-cell death by the D-TAT-IB1(s) peptide was analyzed. TC-3 cells were incubated as described above for 30 minutes with one single addition of the indicated peptides (1 μM), then IL-1 (10 ng/ml) was added.
Apoptotic cells were then counted after two days of incubation with IL-1 by use of Propidium Iodide and Hoechst 33342 nuclear staining. A minimum of 1,000 cells were counted for each experiment. Standard Error of the Means (SEM) are indicated, n=5.
Long term inhibition of IL-1 P induced cell-death by the D-TAT-IB1 peptide was also analyzed. TC-3 cells were incubated as above for 30 minutes with one single addition of the indicated peptides (1 μM), then IL-1 (10 ng/ml) was added, followed by addition of the cytokine every two days. Apoptotic cells were then counted after 15 days of incubation with IL-1 by use of propidium iodide and Hoechst 33342 nuclear staining. […] A minimum of 1.000 cells were counted for each experiment.

[9] = Dexamethasone group, blinded assessment

Molecule: C[C@@H]1C[C@H]2[C@@H]3CCC4=CC(=O)C=C[C@]4(C)[C@@]3(F)[C@@H](O)C[C@]2(C)[C@@]1(O)C(=O)CO [Dexamethasone, reference compound]
- AEs possibly or probably related to study treatment as assessed by the Investigator ([1]; Dexamethasone (N = 50)): 15 Total # events
- Adverse events which led to an interruption of study treatment ([1]; Dexamethasone dose group): 3 (5.5%) number of events (% of reported events)
- Reported AEs by severity: Mild ([1]; Dexamethasone dose group): 42 (76.4%) number of events (%)
- Reported AEs by severity: Moderate ([1]; Dexamethasone dose group): 9 (16.4%) number of events (%)
- Reported AEs by severity: Severe ([1]; Dexamethasone dose group): 4 (7.3%) number of events (%)
- AEs considered by the Investigator to be related to Dexamethasone [1, 9]: 2 (3.6%) # events (%)
- AEs considered by the Investigator to be related to XG-102 [1, 9]: 13 (23.64%) # events (%)
- AEs possibly or probably related to study medication ([1]; dexamethasone group): 15 events
- Intraocular pressure increased, patients ([1]; dexamethasone group): 14%
- events in SOC EYE DISORDERS ([1]; dexamethasone group): 30 events
- events resulting in premature withdrawal of study treatment eye drops ([1]; dexamethasone group): 3 events
- patients with SAE ([1]; dexamethasone group): 2 patients
- patients with event in SOC EYE DISORDERS ([1]; dexamethasone group): 16 (32%)
- percentage of patients with an AE within 24 hours after administration ([1]; dexamethasone group): 30%
- total number of AEs reported ([1]; dexamethasone group): 55
- Cleared ocular inflammation (cell grade 0 and flare grade 0): Yes ([2]; Visit 1 (21 hours), Full analysis population): 4 (8.2%) # patients (%)
- Cleared ocular inflammation (cell grade 0 and flare grade 0): Yes ([2]; Visit 1 (21 hours), Per-protocol population): 4 (8.2%) # patients (%)
- Cleared ocular inflammation (cell grade 0 and flare grade 0): Yes ([2]; Visit 2 (7 days), Full analysis population): 9 (18.8%) # patients (%)
- Cleared ocular inflammation (cell grade 0 and flare grade 0): Yes ([2]; Visit 2 (7 days), Per-protocol population): 9 (18.8%) # patients (%)
- Cleared ocular inflammation (cell grade 0 and flare grade 0): Yes ([2]; Visit 3 (14 days), Full analysis population): 10 (20.4%) # patients (%)
- Cleared ocular inflammation (cell grade 0 and flare grade 0): Yes ([2]; Visit 3 (14 days), Per-protocol population): 10 (21.3%) # patients (%)
- Cleared ocular inflammation (cell grade 0 and flare grade 0): Yes ([2]; Visit 4 (28 days), Full analysis population): 17 (35.4%) # patients (%)
- Cleared ocular inflammation (cell grade 0 and flare grade 0): Yes ([2]; Visit 4 (28 days), Per-protocol population): 15 (34.9%) # patients (%)
- percentage of patients for whom rescue medication was introduced ([2]; eye drops 4 times/day, 21 days): 4.0%

Molecule: CC(C)Cc1ccc(C(C)C(=O)O)cc1 (centres unmarked) [ibuprofen]
- nociceptive scores versus vehicle [3]: significantly decrease nociceptive scores
- nociceptive threshold versus vehicle [3]: significantly increased
- haemorrhage scores [4]: no significant change was observed regarding haemorrhage scores
- nociceptive scores versus vehicle [4]: significant decrease of nociceptive scores
- nociceptive threshold versus vehicle [4]: significantly increased
- urinary bladder wall thickness [4]: a significant decrease was observed in urinary bladder wall thickness

Molecule: D-TAT-IB1(s) (peptide)
- JNK activation (immunoblot) in Aβ42-stressed PKR-/- cortical neurons; peptide at 10 µM [5]: -35%
- JNK activity (pJNK/JNK ratio, immunoblot) in cortical neurons under H2O2 oxidative stress; peptide at 10 µM [5]: 45%
- c-Jun phosphorylation (immunoblot) in Aβ42-stressed WT cortical neurons; peptide at 10 µM [5]: -74%

Molecule: GRKKRRQRRR (Description of sequence Peptide L-TAT (see Table 1))
- entry into cells [6]: efficiently and rapidly (less than five minutes) entered cells

Molecule: IPSPSVEEPHKHRPTTLRLTTLGAQDS (Description of sequence Peptide IB2-long (see Table 1))
- efficiency in binding JNK versus c-Jun or ATF2 [7]: approximately 100 fold

Molecule: PGTGCGDTYRPKRPTTLNLFPQVPRSQDT (Description of sequence peptide IB1-long (see Table 1))
- efficiency in binding JNK versus c-Jun or ATF2 [7]: approximately 100 fold

Molecule: RRRQRRKKRG (D-amino acids; Description of sequence Peptide D-TAT (see Table 1))
- entry into cells [6]: efficiently and rapidly (less than five minutes) entered cells

Molecule: TDQSRPVQPFLNLTTPRKPRYTDPPRRRQRRKKRG ([dT][dD][dQ][dS][dR][dP][dV][dQ][dP][dF][dL][dN][dL][dT][dT][dP][dR][dK][dP][dR][dY][dT][dD][dP][dP][dR][dR][dR][dQ][dR][dR][dK][dK][dR]G) [D-TAT-IB1]
- IL-1 induced apoptosis [8]: decreased IL-1 induced apoptosis to a similar extent as L-TAT-IB peptides
